Results on 66 compounds are retold here after a melting point compilation (Tetko et al.; mined from patent text by program, amines drawn as free bases though some values may be those of a salt).

In general, melting point refers to the temperature, or range, at which the solid turns liquid. The compound `Cc1cccc(C)c1CNc1cc(CO)cc2c1nc(C)n2C` registered a melting point of 245 to 246 °C.
In turn, `CC(C)CC(SC1CCCCC1)c1c(O)cc(-c2ccccc2)oc1=O` (stereo unspecified) displayed a melting point of 210 to 212 °C.
Take `CC(C)(C)C(F)(F)c1ccc(C(N)=O)cc1`: the melting point was in the range of 128 to 132 °C.
`Oc1ccc(C2COc3cc4c(cc3C2)OCO4)cc1` (stereo unspecified) registered a melting point of 139 to 140 °C.
The result for `COc1ccc(C(=O)C=Cc2ccc(OCc3ccccc3)cc2)c(O)c1CC=C(C)C` reads 70 to 71 °C; that for `OCC1(CO)COCCNCCOCCCOCCNCCO1`, 137 to 140 °C; that for `CCn1cc(C(=O)O)c(=O)c2cc(F)c(N3CCNC(c4ccc(Cl)s4)C3)cc21` (stereo unspecified), 232 to 234 °C.
Compound `CSc1cc2cc(-c3ccccc3)ccc2cc1O` gave a melting point of 129 to 130 °C.
With `Cc1[nH]cnc1CSCCSC#N`, the melting point fell in the range of 101 to 103 °C.
For the compound `CC(C)C[C@H](NC(=O)OCC1CCCCC1)C(=O)N[C@@H](C(C)C)[C@H](O)c1c(-c2ccccc2)c1=O`, the melting point was in the range of 148 to 149 °C.
`COc1nc(C)nc(NC(=O)NS(=O)(=O)c2ccccc2C(=O)OCCCl)n1` gave a melting point of 167 to 170 °C.
Regarding `Cc1cc(C2=NOC(c3cc(Cl)cc(Cl)c3)(C(F)(F)F)C2)ccc1C(=O)N(C)c1cncnc1` (stereo unspecified), the melting point fell in the range of 197 to 200 °C.
Consider `CC1(C)OC(=O)C(C(=O)C2CC2)C(=O)O1`, for which the melting point fell in the range of 44 to 46 °C.
For `N#CCCn1nc(O)nc1Cl` the value was 149 to 150 °C; for `CC(=O)C(=O)N1CCC[C@H]1C(=O)O`, 88 to 89 °C.
On to `CC(C)(C)c1ccc2c(c1)Cc1cc(C(C)(C)C)ccc1S2`, for which the melting point lay in the range of 152 to 154 °C.
In turn, `O=C(Nc1cc(Cl)c(N2CCOCC2)c(Cl)c1)c1ccc(F)c(OCc2cccnc2)c1` yielded a melting point of 209 to 211 °C.
Regarding `O=C1c2c(O)cccc2C(SCCO)c2cccc(O)c21`, the melting point was in the range of 146 to 147 °C.
For `CCCCC1c2ccccc2-c2ccccc2N1S(=O)(=O)c1ccc(OC)cc1` (stereo unspecified) the value was 127 to 129 °C.
For `COc1ccc(Cl)c2c1[nH]c1c(C(=O)O)cccc12`, the melting point was found to be 328 °C.
In turn, `NC(=S)N1CCC(=O)C(C(c2ccccc2)c2ccccc2)C1` (stereo unspecified) gave a melting point of 107 °C.
Compound `CCN1c2ccccc2N(C)C(=O)c2cccnc21` had a melting point of 106 to 111 °C.
For `O=C(O)c1cc(S(=O)(=O)Cl)cc2c1OCCO2`, the melting point is 210 to 215 °C.
Take `O=C1CN2Cc3cccc(OCCCC(=O)N(CCO)CCCCC4CCCCC4)c3N=C2N1`: the melting point was 110 to 111 °C.
For `O=C1NCC2(CCN(CC(O)COc3cccc4ccccc34)CC2)O1` (stereo unspecified) the value was 137 to 140 °C.
Consider `CC1CCCN(C(=O)COc2cc(-c3ccccc3)nc3ccccc23)C1` (stereo unspecified), for which the melting point amounted to 96 °C.
Consider `Nc1nc(O)c2ncn(C=C3CC3CO)c2n1` (stereo unspecified), for which the melting point is 218 to 221 °C.
Regarding `COc1cc(C(C)(C)O)c(O)c2c1C(C)(C)CCC2(C)C`, the melting point was determined as 140 °C.
For `CC(c1ccccc1)C(CS)C(=O)NCC(=O)O` (stereo unspecified) the value was 129 °C; for `O=C1C(=CO)CSc2ccc(Cl)cc21`, 103 to 104 °C; for `CCOC(=O)N=NC(=O)OCC`, 120 to 121 °C.
`COc1ccc2c(c1)c(Cc1nc(-c3ccc([N+](=O)[O-])cc3)cs1)c(C)n2C(=O)c1ccc(Cl)cc1` registered a melting point of 219 °C.
Turning to `CS(=O)(=O)c1ccc(-c2sc(-c3ccccc3Cl)nc2-c2ccccc2Cl)cc1`, the melting point was 143 to 147 °C.
As for `O=C(c1cc(-c2ccccc2)ccn1)N(O)Cc1ccccc1`, the melting point was in the range of 160 to 165 °C.
`N#Cc1cc(Sc2ccc(Cl)c(Cl)c2)ccc1N` showed a melting point of 126 to 128 °C.
The result for `CCOc1ccc2c(c1)C(C)(c1cc(CN3CCCC3)ccc1Cl)C(=O)N2S(=O)(=O)c1ccc(C(=O)NC(C)(C)C)cc1OC` (stereo unspecified) reads 132 °C; that for `CC(C)[C@H](N=Cc1cccc(-c2ccccc2)c1O)C(=O)O`, 140 to 141 °C; that for `CC(C)(C)C(=O)Nc1cccc(-c2ccc(C3CCNC3=O)cc2F)n1` (stereo unspecified), 162 to 165 °C.
Turning to `CC(C)Cc1ccc(CCc2cc3c(s2)NC(=O)CN=C3c2ccccc2Cl)cc1`, the melting point lay in the range of 179 to 181 °C.
`CCCC(C)NC(=O)c1ccc(C(=O)Nc2ccccc2NC(=O)OC(C)(C)C)s1` (stereo unspecified) returned a melting point of 183 °C.
Turning to `CCCCc1cc(Cc2ccc(C(=O)O)cc2)c2ccccc2n1`, the melting point worked out at 158 °C.
The compound `CCCCCCCCCCCCCCCCCNC(=O)Oc1cccc([N+](=O)[O-])c1` returned a melting point of 66 to 73 °C.
The compound `Clc1ncc(C2CCCCC2)c2ccccc12` came in with a melting point of 53 to 55 °C.
In turn, `O=C(O)c1c[nH]c(Sc2ccc(Cl)c(Cl)c2)c1` showed a melting point of 156 to 159 °C.
Compound `CS(=O)(=O)N(c1cc(-c2ncc(C(F)(F)F)cc2Cl)ccc1Cl)S(C)(=O)=O` displayed a melting point of 230 to 231 °C.
In the case of `O=C(O)c1ccc(-c2ccc(Cl)s2)nc1`, the melting point was above 260 °C.
Consider `COc1ccc2c(cccc2[C@H]2CO[C@H](CCCNC(=O)OCC(N)=O)OC2)c1`, for which the melting point is 148 to 150 °C.
As for `COc1cc2c(cc1C(F)(F)F)N(C(=O)Nc1cncc(-c3c(F)cccc3F)c1)CC2`, the melting point lay in the range of 217 to 219 °C.
For the compound `O=C1N(Cc2ccc(-c3ccccc3C(F)(F)F)o2)c2ccccc2C12COc1cc3c(cc12)OCOC3` (stereo unspecified), the melting point lay within 124 to 126 °C.
Turning to `Cc1ccc(N(CCN2CCC(C(=O)c3ccc(F)cc3)CC2)C(=O)c2ccc([N+](=O)[O-])cc2)cc1`, the melting point lay in the range of 175 to 178 °C.
For `O=C(CCCl)N(c1ccccc1)c1ccccc1`, the melting point was in the range of 93 to 94 °C.
Regarding `Nc1nc2ccccc2c2c1ncn2CCCCCC(=O)N1CCOCC1`, the melting point was in the range of 166 to 168 °C.
For `Cc1cc(=O)oc2cc(S)ccc12` the value was 136 °C; for `Cc1ccccc1CNc1nc(Cl)nc2ccccc12`, 215 to 217 °C; for `COc1ccc(/C(=C/c2ccncc2)c2ccco2)cc1OC1CCCC1`, 122 to 123 °C.
In turn, `O=C1CCn2c(Cc3ccc(Cl)cc3)nc3c(Cl)ccc1c32` showed a melting point of 167 °C.
`CN(Cc1ccc2c(Br)c(OCC#N)ccc2c1)C(=O)c1cn(C)c2ccccc12` displayed a melting point of 148 to 150 °C.
For `CC(C)c1ccc(OC(C)(Cc2ccc(OCCNC(=O)c3ccc(-c4ccccn4)cc3)cc2)C(=O)O)cc1` (stereo unspecified) the value was 141 to 143 °C.
For `NNc1ccc(Cl)cc1F` the value was 57 to 63 °C.
The result for `CN1CCCCCCC1=NC(=S)Nc1ccccc1` reads 123 to 125 °C; that for `CCCCC1=C(c2ccc(F)cc2)C(=NO)CC1`, 115 to 116 °C; that for `Fc1ccccc1C(Cl)(c1ccccc1)c1ccccc1`, 134 to 135 °C.
`O=C(O)c1cn(C2CC2)c2c(Br)c(F)c(F)cc2c1=O` yielded a melting point of 224 to 226 °C.
The compound `Nc1cccc(Oc2cccc(Oc3cccc(N)c3)n2)c1` showed a melting point of 118 to 120 °C.
`Nc1ccc2nc(-c3ccccc3)nn2c1` registered a melting point of 201 °C.
Compound `CC(C)C(=O)N[C@@H](CS)C(=O)NCCSC(=O)C(C)(C)C` showed a melting point of 120 to 122 °C.
